Read-outs that look alike come from different tables or passages of the source.
Test system: blood eosinophils
Procedure: This was a Phase II, open-label, multicenter study in approximately 30 participants aged≥40 to ≤80 years of age with a diagnosis of COPD and a blood eosinophil count of ≥0.30×10^9/L at screening. Some patients with blood eosinophil counts of 0.25-0.299×10^9/L at screening also were included. Participants were treated with 150 mg dexpramipexole BID. […] Informed consent was obtained from participants before the initiation of any study-specific procedures. This study was conducted at approximately 30 sites in the US.
There were three phases to the study: • Screening Phase (Screening Visit through Baseline) Participants underwent screening to assess whether they satisfy the eligibility criteria. […] After the collection of all Baseline assessments, participants began investigational treatment (dexpramipexole 150 mg), BID for 16 weeks. The Week 16 Visit was the Primary Outcome Visit for the study. • Follow-up Phase (Conclusion of Week 16 assessments through Week 20) During this phase, participants had one final phone visit to collect final safety assessments following cessation of investigational product.
The primary endpoint of this study was geometric mean change in the blood AEC from Baseline to Week 16.
Blood eosinophil counts were obtained at every onsite study visit. Samples were collected between 6 AM and 12 noon to minimize diurnal variation.

[1] = Subject 10001-001-0001 (<50% AEC reduction at Week 16), Week 4
[2] = Subject 10001-001-0001 (<50% AEC reduction at Week 16), Week 8
[3] = Subject 10001-001-0001 (<50% AEC reduction at Week 16), Week 12
[4] = Subject 10001-001-0001 (<50% AEC reduction at Week 16), Week 16
[5] = Subject 10001-001-0002 (>=50% AEC reduction at Week 16), Week 4
[6] = Subject 10001-008-0002 (<50% AEC reduction at Week 16), Week 4
[7] = Subject 10001-008-0002 (<50% AEC reduction at Week 16), Week 8
[8] = Subject 10001-008-0002 (<50% AEC reduction at Week 16), Week 12
[9] = Subject 10001-008-0002 (<50% AEC reduction at Week 16), Week 16
[10] = Subject 10001-010-0005 (<50% AEC reduction at Week 16), Week 4
[11] = Subject 10001-010-0005 (<50% AEC reduction at Week 16), Week 8
[12] = Subject 10001-010-0005 (<50% AEC reduction at Week 16), Week 12
[13] = Subject 10001-010-0005 (<50% AEC reduction at Week 16), Week 16
[14] = Subject 10001-022-0001 (>=50% AEC reduction at Week 16), Week 4
[15] = Subject 10001-022-0001 (>=50% AEC reduction at Week 16), Week 8
[16] = Subject 10001-022-0001 (>=50% AEC reduction at Week 16), Week 12
[17] = Subject 10001-022-0001 (>=50% AEC reduction at Week 16), Week 16
[18] = Subject 10001-022-0006 (<50% AEC reduction at Week 16), Week 4
[19] = Subject 10001-022-0006 (<50% AEC reduction at Week 16), Week 12
[20] = Subject 10001-022-0006 (<50% AEC reduction at Week 16), Week 16
[21] = Subject 10001-024-0002 (>=50% AEC reduction at Week 16), Week 4
[22] = Subject 10001-024-0002 (>=50% AEC reduction at Week 16), Week 8
[23] = Subject 10001-024-0002 (>=50% AEC reduction at Week 16), Week 12
[24] = Subject 10001-024-0002 (>=50% AEC reduction at Week 16), Week 16

## CCCN[C@@H]1CCc2nc(N)sc2C1 [Dexpramipexole, (6R)-2-amino-4,5,6,7-tetrahydro-6-(propylamino)benzothiazole]
[1]
  AEC Ratio to Baseline: 0.70
  AEC Result: 290 cells/uL
[2]
  AEC Ratio to Baseline: 0.56
  AEC Result: 235 cells/uL
[3]
  AEC Ratio to Baseline: 0.54
  AEC Result: 224 cells/uL
[4]
  AEC Ratio to Baseline: 0.62
  AEC Result: 260 cells/uL
[5]
  AEC Ratio to Baseline: 0.80
  AEC Result: 298 cells/uL
Subject 10001-001-0002 (>=50% AEC reduction at Week 16), Week 8
  AEC Result: 0 cells/uL
Subject 10001-001-0002 (>=50% AEC reduction at Week 16), Week 8, zero value replaced with 5 cells
  AEC Ratio to Baseline: 0.01(a)
Subject 10001-001-0002 (>=50% AEC reduction at Week 16), Week 12
  AEC Result: 0 cells/uL
Subject 10001-001-0002 (>=50% AEC reduction at Week 16), Week 12, zero value replaced with 5 cells
  AEC Ratio to Baseline: 0.01(a)
Subject 10001-001-0002 (>=50% AEC reduction at Week 16), Week 16
  AEC Result: 0 cells/uL
Subject 10001-001-0002 (>=50% AEC reduction at Week 16), Week 16, zero value replaced with 5 cells
  AEC Ratio to Baseline: 0.01(a)
[6]
  AEC Ratio to Baseline: 0.70
  AEC Result: 218 cells/uL
[7]
  AEC Ratio to Baseline: 1.08
  AEC Result: 336 cells/uL
[8]
  AEC Ratio to Baseline: 1.90
  AEC Result: 589 cells/uL
[9]
  AEC Ratio to Baseline: 1.24
  AEC Result: 384 cells/uL
[10]
  AEC Ratio to Baseline: 0.94
  AEC Result: 388 cells/uL
[11]
  AEC Ratio to Baseline: 0.96
  AEC Result: 396 cells/uL
[12]
  AEC Ratio to Baseline: 0.56
  AEC Result: 231 cells/uL
[13]
  AEC Ratio to Baseline: 0.64
  AEC Result: 266 cells/uL
[14]
  AEC Ratio to Baseline: 1.51
  AEC Result: 724 cells/uL
[15]
  AEC Ratio to Baseline: 0.19
  AEC Result: 90 cells/uL
[16]
  AEC Ratio to Baseline: 0.01
  AEC Result: 6 cells/uL
[17]
  AEC Ratio to Baseline: 0.01
  AEC Result: 6 cells/uL
[18]
  AEC Ratio to Baseline: 1.23
  AEC Result: 676 cells/uL
[19]
  AEC Ratio to Baseline: 1.07
  AEC Result: 589 cells/uL
[20]
  AEC Ratio to Baseline: 0.62
  AEC Result: 342 cells/uL
[21]
  AEC Ratio to Baseline: 0.77
  AEC Result: 192 cells/uL
[22]
  AEC Ratio to Baseline: 0.77
  AEC Result: 192 cells/uL
[23]
  AEC Ratio to Baseline: 0.04
  AEC Result: 9 cells/uL
[24]
  AEC Ratio to Baseline: 0.39
  AEC Result: 98 cells/uL
Week 4
  AEC Observed, Geometric Mean ± GSE: 353.3 ± 1.22 cells/uL
  AEC Observed, Max: 724 cells/uL
  AEC Observed, Median: 298.0 cells/uL
  AEC Observed, Min: 192 cells/uL
  AEC Observed, Q1: 218 cells/uL
  AEC Observed, Q3: 676 cells/uL
  AEC Ratio to baseline, Geometric Mean ± GSE: 0.911 ± 1.1189
  AEC Ratio to baseline, Max: 1.51
  AEC Ratio to baseline, Median: 0.799
  AEC Ratio to baseline, Min: 0.70
  AEC Ratio to baseline, Q1: 0.70
  AEC Ratio to baseline, Q3: 1.23
Week 8
  AEC Observed, Geometric Mean ± GSE: 118.0 ± 1.95 cells/uL
  AEC Observed, Max: 396 cells/uL
  AEC Observed, Median: 212.4 cells/uL
  AEC Observed, Min: 5 cells/uL
  AEC Observed, Q1: 90 cells/uL
  AEC Observed, Q3: 336 cells/uL
  AEC Ratio to baseline, Geometric Mean ± GSE: 0.323 ± 1.9860
  AEC Ratio to baseline, Max: 1.08
  AEC Ratio to baseline, Median: 0.658
  AEC Ratio to baseline, Min: 0.01
  AEC Ratio to baseline, Q1: 0.19
  AEC Ratio to baseline, Q3: 0.96
Week 12
  AEC Observed, Geometric Mean ± GSE: 64.9 ± 2.30 cells/uL
  AEC Observed, Max: 589 cells/uL
  AEC Observed, Median: 224.0 cells/uL
  AEC Observed, Min: 5 cells/uL
  AEC Observed, Q1: 6 cells/uL
  AEC Observed, Q3: 589 cells/uL
  AEC Ratio to baseline, Geometric Mean ± GSE: 0.167 ± 2.2497
  AEC Ratio to baseline, Max: 1.90
  AEC Ratio to baseline, Median: 0.538
  AEC Ratio to baseline, Min: 0.01
  AEC Ratio to baseline, Q1: 0.01
  AEC Ratio to baseline, Q3: 1.07
Week 16
  AEC Observed, Geometric Mean ± GSE: 82.8 ± 2.06 cells/uL
  AEC Observed, Max: 384 cells/uL
  AEC Observed, Median: 260.0 cells/uL
  AEC Observed, Min: 5 cells/uL
  AEC Observed, Q1: 6 cells/uL
  AEC Observed, Q3: 342 cells/uL
  AEC Ratio to baseline, Geometric Mean ± GSE: 0.213 ± 2.0849
  AEC Ratio to baseline, Max: 1.24
  AEC Ratio to baseline, Median: 0.620
  AEC Ratio to baseline, Min: 0.01
  AEC Ratio to baseline, Q1: 0.01
  AEC Ratio to baseline, Q3: 0.64
  AEC, average, percent of the baseline value: 21.3 % of the baseline value
  subjects classified as AECR≥0.5 (reduction in AEC of ≥50% from baseline at week 16): 3 of the 7 subjects
